Measurements as given in patent US4596811A, “Heterocyclic compounds, a process for their production and medicaments containing these compounds” (Ludwig Heumann & Co., GmbH, priority 1982, dated 1986).

Biological target: T1, histamine-H2 receptors (isolated atrium) (Cavia porcellus, UniProt P47747)
T1 construct: in vitro on the isolated atrium of guinea pigs; from tissue; host or cells: isolated guinea pig atrium
Assay: H2-antagonistic activity, pA2-values in vitro on the isolated atrium of guinea pigs
Format: cell-based
Settings: isolated guinea pig atrium, H2 antagonism
Description: An accepted method for determining H2-antagonistic activity is to determine the pA2-values in vitro on the isolated atrium of guinea pigs (cf. Ariens, Molecular Pharmacology, Vol. 1, Academic Press, New York, 1964).

T1 sequence (P47747 whole entry): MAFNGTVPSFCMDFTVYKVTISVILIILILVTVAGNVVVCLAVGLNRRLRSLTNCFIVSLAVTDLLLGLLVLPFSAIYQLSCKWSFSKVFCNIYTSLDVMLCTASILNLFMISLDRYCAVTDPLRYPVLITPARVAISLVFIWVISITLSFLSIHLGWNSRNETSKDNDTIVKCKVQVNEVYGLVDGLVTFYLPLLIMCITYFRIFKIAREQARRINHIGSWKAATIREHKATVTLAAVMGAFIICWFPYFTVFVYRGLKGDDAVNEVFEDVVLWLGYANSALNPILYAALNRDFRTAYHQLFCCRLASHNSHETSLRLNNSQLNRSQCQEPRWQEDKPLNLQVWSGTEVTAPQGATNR

Kb [µM] | Compound
0.0794 | CN(C)Cc1cc(CSCCC(=N)NS(=O)(=O)c2ccc(N)cc2)cs1 [Example 2, N-(p-aminobenzene-sulfonyl)-3-[(2-N,N-dimethylaminomethylthienyl-4)-methylthio]-propionamidine]
0.112 | N=C(CCCCOc1cccc(CN2CCCCC2)c1)NS(=O)(=O)c1ccc(N)cc1 [Example 10]
0.0631 | N=C(CCSCc1csc(CN2CCCCC2)c1)NS(=O)(=O)c1ccc(N)cc1 [Example 12]
